For assay [1], the target named is T1, recombinant human KIF18A (Homo sapiens, UniProt Q8NI77).
T1 construct: purchased GenScript
Description: Inhibition of KIF18A enzyme activity (ADP-Glo assay). Conditions: recombinant human KIF18A 100 nM, ATP 60 µM, tubulin, paclitaxel; read-out: IC50. Format: biochemical. The method, then:
Inhibition degrees of the compounds of the present invention on recombinant human KIF18A enzyme activity in vitro were determined by the following method. An ADP-Glo™ Kinase Assay kit (article number V9102) from Promega Company was used in this method. Detailed experimental operation referred to the instruction of the kit.
An experimental process was briefly described as follows: a test compound was dissolved in DMSO first to prepare a stock solution, then the stock solution was gradiently diluted with a reaction buffer A ([…], 0.01% Pluronic F-68), and a final concentration of the test compound in the reaction system was in a range of 10000 nM-0.15 nM; and a KIF18A protein and ATP working solution was prepared by using a reaction buffer B (15 mM Tris, pH 7.5, 10 mM MgCl2, 0.01% Pluronic F-68, 37.5 µg/ml tubulin, 1.25 µM paclitaxel). The reaction was carried out in a 384-well microplate. The test compound and the recombinant human KIF18A protein (final concentration of 100 nM, entrusted to GenScript for expression) were added into the wells and incubated at room temperature for 20 minutes, and subsequently, an ATP solution (component V915A from the ADP-Glo™ Kinase Assay kit, final concentration of 60 µM) was added to the reaction solution and the system was incubated at room temperature for 20 minutes. Subsequently, 5 µL of ADP-Glo Reagent was added to the reaction systemand the system was incubated at room temperature for 50 minutes. Then, 10 µL of Kinase Detection Reagent was added to the reaction system and the system was incubated at room temperature for 30 minutes. After the incubation was ended, a chemiluminiscence intensity value of each well was determined by a microplate reader in a Luminescence mode.
In general terms: ADP-Glo first removes unused ATP, then detects ADP through luciferase.

Assay [2] relates to OVCAR-3 cells. Description: Inhibition of OVCAR-3 cell proliferation (CellTiter-Glo cell viability). Type of assay: cell-based. The following applies: Homo sapiens; OVCAR-3 cells (TP53 R248Q mutation), 72 hours culture with compound; read-out: IC50. As to the method:
Influences of the compounds of the present invention on OVCAR-3 cell proliferation were determined by the following method. OVCAR-3 cells (containing TP53 R248Q mutation) were purchased from the Cell Bank of Shanghai Institute of Biochemistry and Cell Biology, Chinese Academy of Sciences, and cultured in an RPMI 1640 culture medium containing 10% fetal bovine serum, 100 U penicillin and 100 µg/mL streptomycin. A cell viability was determined by a CellTiter-Glo® Luminescent Cell Viability Assay kit (Promega, article number G7573).
(§1) An experimental method was operated according to steps in the instruction of the kit, which was briefly described as follows: a test compound was dissolved in DMSO first to prepare a 10 mM stock solution, then the stock solution was diluted with the culture medium to prepare a test sample, and a final concentration of the compound was in a range of 1000 nM-0.015 nM. Cells in a logarithmic growth phase were inoculated into a 96-well cell culture plate at a density of 1000 cells per well, cultured in a 5% CO2 incubator at 37°C overnight, and then the test compound was added to continuously culture for 72 hours. After the culture was ended, 50 uL of CellTiter-Glo detection solution was added to each well , shaken for 5 minutes, and then allowed to stand for 10 minutes, and subsequently, a luminance value of each well of the sample was read by a microplate reader in a Luminescence mode. By comparing with the numerical value of a control group (0.3% DMSO), a percentage inhibition rate of the compound at each concentration point was calculated, and then nonlinear regression analysis was carried out based on concentration logarithm-inhibition rate of the compound in GraphPad Prism 5 software, so as to obtain an IC50 value of the compound for inhibiting the cell proliferation, which was as shown in Table 1. Table 1 IC50 data of the compounds of the present invention for inhibiting OVCAR-3 cell proliferation
On the technique in general: In ATP-based viability assays light output follows the ATP content of the culture.

Assay [3] relates to HT-29 cells. Description: Inhibition of HT-29 cell proliferation (CellTiter-Glo cell viability). Conditions: Homo sapiens; HT-29 cells (TP53 R273H mutation), 120 hours culture with compound; read-out: IC50. Type of assay: cell-based. As to the method: Influences of the compounds of the present invention on HT-29 cell proliferation were determined by the following method. HT-29 cells (containing TP53 R273H mutation) were purchased from the Cell Bank of Shanghai Institute of Biochemistry and Cell Biology, Chinese Academy of Sciences, and cultured in a McCOY's 5A culture medium containing 10% fetal bovine serum, 100 U penicillin and 100 µg/mL streptomycin. A cell viability was determined by a CellTiter-Glo® Luminescent Cell Viability Assay kit (Promega, article number G7573).
as §1, with “for 120” for “for 72”, “each well,” for “each well ,”, “Table 2.” for “Table 1.”, “Table 2” for “Table 1”, “inhibiting HT-29” for “inhibiting OVCAR-3”

What is called IC50 is the concentration needed to halve the response being measured.

T1 sequence (Q8NI77 whole entry): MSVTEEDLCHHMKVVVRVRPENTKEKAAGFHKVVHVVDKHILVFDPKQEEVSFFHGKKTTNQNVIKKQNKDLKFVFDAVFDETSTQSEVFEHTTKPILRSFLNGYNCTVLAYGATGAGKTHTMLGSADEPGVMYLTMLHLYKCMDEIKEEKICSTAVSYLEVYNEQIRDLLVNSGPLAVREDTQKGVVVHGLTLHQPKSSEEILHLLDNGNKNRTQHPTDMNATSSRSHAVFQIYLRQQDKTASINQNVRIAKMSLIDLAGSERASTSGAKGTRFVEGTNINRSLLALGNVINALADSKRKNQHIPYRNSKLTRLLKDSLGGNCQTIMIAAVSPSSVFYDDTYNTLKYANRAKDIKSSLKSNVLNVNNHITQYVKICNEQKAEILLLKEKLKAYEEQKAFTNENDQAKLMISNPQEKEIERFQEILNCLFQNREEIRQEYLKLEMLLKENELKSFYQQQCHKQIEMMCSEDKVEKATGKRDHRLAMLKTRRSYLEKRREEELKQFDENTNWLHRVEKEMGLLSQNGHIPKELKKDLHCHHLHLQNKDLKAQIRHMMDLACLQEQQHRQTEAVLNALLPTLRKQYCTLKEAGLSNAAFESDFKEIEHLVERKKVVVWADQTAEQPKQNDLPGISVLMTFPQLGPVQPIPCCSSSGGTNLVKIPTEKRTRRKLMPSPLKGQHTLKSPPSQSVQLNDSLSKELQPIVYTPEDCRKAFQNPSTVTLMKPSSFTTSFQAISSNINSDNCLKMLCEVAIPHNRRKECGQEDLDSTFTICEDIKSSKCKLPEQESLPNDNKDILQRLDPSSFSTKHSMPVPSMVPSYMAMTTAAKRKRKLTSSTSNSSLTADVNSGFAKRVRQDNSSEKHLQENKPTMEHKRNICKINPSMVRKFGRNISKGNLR
T1 sequence (P68363 whole entry partner): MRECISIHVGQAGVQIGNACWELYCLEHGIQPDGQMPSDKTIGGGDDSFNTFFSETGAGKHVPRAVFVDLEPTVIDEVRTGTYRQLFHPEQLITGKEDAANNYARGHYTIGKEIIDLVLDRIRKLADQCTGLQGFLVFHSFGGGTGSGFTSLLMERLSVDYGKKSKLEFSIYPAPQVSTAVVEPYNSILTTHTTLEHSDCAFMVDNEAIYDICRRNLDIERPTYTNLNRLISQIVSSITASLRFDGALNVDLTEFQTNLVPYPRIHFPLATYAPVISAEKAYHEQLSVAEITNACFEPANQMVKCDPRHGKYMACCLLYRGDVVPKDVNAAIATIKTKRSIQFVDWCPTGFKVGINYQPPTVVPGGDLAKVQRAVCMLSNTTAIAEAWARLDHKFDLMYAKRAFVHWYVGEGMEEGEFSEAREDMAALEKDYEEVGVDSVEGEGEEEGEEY
T1 sequence (Q9BVA1 whole entry partner): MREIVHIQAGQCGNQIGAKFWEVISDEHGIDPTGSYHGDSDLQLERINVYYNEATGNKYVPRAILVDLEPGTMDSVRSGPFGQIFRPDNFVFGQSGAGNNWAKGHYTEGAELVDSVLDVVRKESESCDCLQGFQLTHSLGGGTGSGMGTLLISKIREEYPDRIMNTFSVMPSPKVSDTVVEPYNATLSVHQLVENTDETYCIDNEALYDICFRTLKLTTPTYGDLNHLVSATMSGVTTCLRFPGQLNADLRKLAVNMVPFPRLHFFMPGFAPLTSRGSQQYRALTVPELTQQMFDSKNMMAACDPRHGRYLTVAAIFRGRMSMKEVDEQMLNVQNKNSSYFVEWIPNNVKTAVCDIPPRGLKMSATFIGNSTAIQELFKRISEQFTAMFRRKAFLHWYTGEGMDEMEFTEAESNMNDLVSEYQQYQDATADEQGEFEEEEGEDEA

As for `CCS(=O)(=O)Nc1ccc(C(=O)Nc2ccc(-c3nnco3)c(OC3CC(F)(F)C3)c2)c(N2CCC3(CC2)CC3)c1` [Example 50, N-(3-(3,3-difluorocyclobutoxy)-4-(1,3,4-oxadiazol-2-yl)phenyl)-4-(ethylsulfonamido)-2-(6-azaspiro[2.5]octan-6-yl)benzamide], the IC50 is 74.3 nM in assay [1] and 19.1 nM in assay [2].
Turning to `O=C(Nc1ccc(-c2nnco2)c(N2CCC(F)(F)CC2)c1)c1ccc(NS(=O)(=O)C2CC2)cc1N1CCC2(CC1)CC2` [Example 41, 4-(cyclopropanesulfonamido)-N-(3-(4,4-difluoropiperidin-1-yl)-4-(1,3,4-oxadiazol-2-yl)phenyl)-2-(6-azaspiro[2.5]octan-6-yl)benzamide], the IC50 in assay [1] was 155 nM; in assay [2] it was 6.2 nM; in assay [3], 1.8 nM.
For `O=C(Nc1ccc(-c2cccnn2)c(N2CCC(F)(F)CC2)c1)c1ccc(NS(=O)(=O)C2CC2)cc1N1CCC2(CC1)CC2` [Example 15, 4-(cyclopropanesulfonamido)-N-(3-(4,4-difluoropiperidin-1-yl)-4-(pyridazin-3-yl)phenyl)-2-(6-azaspiro[2.5]octan-6-yl)b enzamide], in that order: 69.4 nM, 3.7 nM and 4.7 nM.
Turning to `CCS(=O)(=O)Nc1ccc(C(=O)Nc2ccc(-n3ccnc3)c(N3CCC(C)(O)CC3)c2)c(N2CCC3(CC2)CC3)c1` [Example 42, 4-(ethylsulfonamido)-N-(3-(4-hydroxy-4-methylpiperidin-1-yl)-4-(1H-imidazol-1-yl)pheny 1)-2-(6-azaspiro[2.5]octan-6-yl)benzamide], in assay [1], the half-inhibitory concentration (IC50) stood at 88 nM.
Regarding `CCS(=O)(=O)Nc1ccc(C(=O)Nc2ccc(-c3ccnnc3)c(OC3CC(F)(F)C3)c2)c(N2CCC3(CC2)CC3)c1` [Example 48, N-(3-(3,3-difluorocyclobutoxy)-4-(pyridazin-4-yl)phenyl)-4-(ethylsulfonamido)-2-(6-azaspiro[2.5]octan-6-yl)benzamide], the IC50 came to 102 nM in assay [1] and 14.4 nM in assay [2].
For `CCS(=O)(=O)Nc1ccc(C(=O)Nc2ccc(-c3nnc(C)o3)c(OCC(F)(F)F)c2)c(N2CCC3(CC2)CC3)c1` [Example 52, 4-(ethylsulfonamido)-N-(4-(5-methyl-1,3,4-oxadiazol-2-yl)-3-(2,2,2-trifluoroethoxy)phenyl) -2-(6-azaspiro[2.5]octan-6-yl) benzamide], in that order: 125 nM and 17.9 nM.
Turning to `CCS(=O)(=O)Nc1ccc(C(=O)Nc2ccc(C(=O)O)c(N3CCC(F)(F)CC3)c2)c(N2CCC3(CC2)CC3)c1` [Example 2, 2-(4,4-difluoropiperidin-1-yl)-4-(4-(ethylsulfonamido)-2-(6-azaspiro[2.5]octan-6-yl)benzamido)benzoic acid], the figures for the IC50 in assay [1] and in assay [2] were 29.5 nM and 42.9 nM, respectively.
As to `CCS(=O)(=O)Nc1ccc(C(=O)Nc2ccc(-c3nccn3C)c(N3CCC(F)(F)CC3)c2)c(N2CCC3(CC2)CC3)c1` [Example 26, N-(3-(4,4-difluoropiperidin-1-yl)-4-(1-methyl-1H-imidazol-2-yl)phenyl)-4-(ethylsulfonamido)-2-(6-azaspiro[2.5]octan-6-yl)benzamide], the IC50 in assay [1] is 106 nM; in assay [3], 30.8 nM.
Consider `CCS(=O)(=O)Nc1ccc(C(=O)Nc2ccc(-c3nnco3)c(OCC(F)(F)F)c2)c(N2CCC3(CC2)CC3)c1` [Example 51, N-(4-(1,3,4-oxadiazol-2-yl)-3-(2,2,2-trifluoroethoxy)phenyl)-4-(ethylsulfonamido)-2-(6-azaspiro[2.5]octan-6-yl)benzamide], for which the values for the IC50 in assay [1] and in assay [2] were 107 nM and 27.4 nM, respectively.
Consider `CCS(=O)(=O)Nc1ccc(C(=O)Nc2ccc(-c3nnnn3C)c(N3CCC(F)(F)CC3)c2)c(N2CCC3(CC2)CC3)c1` [Example 34, N-(3-(4,4-difluoropiperidin-1-yl)-4-(1-methyl-1H-tetrazol-5-yl)phenyl)-4-(ethylsulfonamido)-2-(6-azaspiro[2.5]octan-6-yl)benzamide], for which the values for the IC50 in assay [1] and in assay [2] were 90 nM and 49.8 nM, respectively.
As for `CCS(=O)(=O)Nc1ccc(C(=O)Nc2ccc(-c3ncc[nH]3)c(N3CCC(C)(O)CC3)c2)c(N2CCC3(CC2)CC3)c1` [Example 43, 4-(ethylsulfonamido)-N-(3-(4-hydroxy-4-methylpiperidin-1-yl)-4-(1H-imidazol-2-yl)pheny 1)-2-(6-azaspiro[2.5]octan-6-yl)benzamide], the values for the IC50 in assay [1] and in assay [2] were 115 nM and 18.8 nM, respectively.
On to `CCS(=O)(=O)Nc1ccc(C(=O)Nc2ccc(-n3ccnc3)c(C3(O)CCC(F)(F)CC3)c2)c(N2CCC3(CC2)CC3)c1` [Example 44, N-(3-(4,4-difluoro-1-hydroxycyclohexyl)-4-(1H-imidazol-1-yl)phenyl)-4-(ethylsulfonamido)-2-(6-azaspiro[2.5]octan-6-yl)benzamide], for which the IC50 in assay [1] was 130 nM; in assay [2] it was 45.5 nM.
For `CCS(=O)(=O)Nc1ccc(C(=O)Nc2ccc(-n3cnnc3)c(N3CCC(F)(F)CC3)c2)c(N2CCC3(CC2)CC3)c1` [Example 27, N-(3-(4,4-difluoropiperidin-1-yl)-4-(4H-1,2,4-triazol-4-yl)phenyl)-4-(ethylsulfonamido)-2-(6-azaspiro[2.5]octan-6-yl)benz amide], in that order: 30.9 nM and 8.1 nM.
For the compound `CCS(=O)(=O)Nc1ccc(C(=O)Nc2ccc(-c3nnn[nH]3)c(N3CCC(F)(F)CC3)c2)c(N2CCC3(CC2)CC3)c1` [Example 33, N-(3-(4,4-difluoropiperidin-1-yl)-4-(1H-tetrazol-5-yl)phenyl)-4-(ethylsulfonamido)-2-(6-azaspiro[2.5]octan-6-yl)benzamide], in assay [1], the IC50 is 3.8 nM.
`CCS(=O)(=O)Nc1ccc(C(=O)Nc2ccc(C(N)=O)c(N3CCC(F)(F)CC3)c2)c(N2CCC3(CC2)CC3)c1` [Example 1, N-(4-carbamoyl-3-(4,4-difluor opiperidin-1-yl)phenyl)-4-(ethylsulfonamido)-2-(6-azaspiro[2.5]octan-6-yl)benzamide]: the IC50 came to 16.5 nM in assay [2] and 10.2 nM in assay [3].

These data come from EP4748837A1, “AROMATIC AMIDE DERIVATIVE, AND PREPARATION METHOD THEREFOR AND USE THEREOF” (Zhejiang Hisun Pharmaceutical Co., Ltd., priority 2023, dated 2025).
